Data reported in the supplement of paper PMC12317010.
Counter-ions that a name gives are not always drawn.

Assay: collision cross section in nitrogen (drift tube, single-field); higher = larger gas-phase ion size
[1] = ion type: [M+H], ion source: APCI, ion mode: Positive
[2] = ion type: [M+H], ion source: ESI, ion mode: Positive
[3] = ion type: [M+Na], ion source: ESI, ion mode: Positive
[4] = ion type: [M-H], ion source: ESI, ion mode: Negative
[5] = ion source: APCI, ion mode: Positive, ion type: [M]+ (permanent cation)
[6] = ion source: ESI, ion mode: Positive, ion type: [M]+ (permanent cation)
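Further: chemical standards at 10 µM analysed by drift tube IMS-QTOF MS in about 3.95 torr nitrogen, mean of duplicate injections differing ≤1%, mass error below 10 ppm.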

SMILES	collision cross section in nitrogen [2]	collision cross section in nitrogen [3]	collision cross section in nitrogen [4]	other results
Cc1cc2c(cc1C(F)(F)F)N(C(=O)Nc1ccc(Oc3cccnc3C)nc1)CC2	213.8 Å²	211 Å²	209.1 Å²	collision cross section in nitrogen [1]: 214.2 Å²
CCN(CC)c1ccc(C=NN(c2ccccc2)c2ccccc2)cc1 [4-[(Diphenylhydrazinylidene)methyl]-N,N-diethylaniline]	200.7 Å²	–	–	collision cross section in nitrogen [1]: 189.8 Å²
CC(=O)CC(=O)Nc1ccc2[nH]c(=O)[nH]c2c1 [3-Oxo-N-(2-oxo-2,3-dihydro-1H-benzimidazol-5-yl)butanamide]	–	–	154.4 Å²	–
Cc1ccc(O)c(-n2nc3ccccc3n2)c1 [2-(2H-Benzotriazol-2-yl)-4-methylphenol]	–	–	155.4 Å²	–
N#CC(C#N)=NNc1cccc(Cl)c1 [Carbonyl cyanide chlorophenylhydrazone]	142.8 Å²	–	–	–
CCCC[N+](CCCC)(CCCC)CCCC [Tetrabutylammonium bromide]	–	–	–	collision cross section in nitrogen [5]: 167.2 Å²; collision cross section in nitrogen [6]: 168 Å²
CCOC(=O)Cc1ccccc1 [Benzeneacetic acid, ethyl ester]	–	–	144.3 Å²	–
CC(C)c1ccc(O)c(C(C)C)c1 [2,4-Diisopropylphenol]	–	–	146.7 Å²	–
CCCCNC(=S)NCCCC [N,N'-Dibutylthiourea]	148.8 Å²	–	148.4 Å²	collision cross section in nitrogen [1]: 148.6 Å²
COc1ccc(C(=CC(=O)N2CCOCC2)c2ccc(Cl)cc2)cc1OC [Dimethomorph]	199.2 Å²	208 Å²	–	collision cross section in nitrogen [1]: 200.7 Å²
COc1ccccc1OCC(O)CO (stereo not given) [Guaifenesin]	–	147.2 Å²	–	–
CC[C@@H]1C[C@H](N(Cc2cc(C(F)(F)F)cc(C(F)(F)F)c2)C(C)=O)c2cc(C(F)(F)F)ccc2N1C(=O)OC(C)C	–	233.5 Å²	231.1 Å²	–
CCCCCCCCCC[N+](C)(C)[O-] [N,N-Dimethyldecylamine oxide]	164.1 Å²	166.7 Å²	–	–
CCc1cccc(C)c1N(C(=O)CCl)C(C)COC (stereo not given) [Metolachlor]	159.8 Å²	172.6 Å²	–	collision cross section in nitrogen [1]: 158.9 Å²
CCOc1ccc2[nH]cc(C(=O)NCc3ccccc3)c(=O)c2n1	183.9 Å²	187 Å²	183.9 Å²	collision cross section in nitrogen [1]: 184.3 Å²
CC(C)CCCCCCOC(=O)C1CCCCC1C(=O)OCCCCCCC(C)C (stereo not given) [Diisononyl cyclohexane-1,2-dicarboxylate]	–	220.8 Å²	–	–
Oc1ccccc1Br [2-Bromophenol]	–	–	120.2 Å²	–
COc1ccc([N+](=O)[O-])cc1O [Sodium 2-methoxy-5-nitrophenolate]	–	–	129.6 Å²	–
COc1ccc(S(=O)(=O)N2C(=O)[C@@](c3ccccc3OC)(N3C[C@H](O)C[C@H]3C(=O)N(C)C)c3cc(Cl)ccc32)c(OC)c1 [Nelivaptan]	230.6 Å²	233.3 Å²	233.1 Å²	collision cross section in nitrogen [1]: 231.8 Å²
CCON=C(CC)C1=C(O)CC(c2c(C)cc(C)cc2C)CC1=O (stereo not given) [Tralkoxydim]	187 Å²	196.2 Å²	188.9 Å²	collision cross section in nitrogen [1]: 187.3 Å²
CC(=O)CC(c1ccccc1)c1c(O)c2ccccc2oc1=O (stereo not given) [Warfarin]	166.9 Å²	179.1 Å²	172.2 Å²	collision cross section in nitrogen [1]: 167.4 Å²
Cc1cc(-n2nc3ccc(Cl)cc3n2)c(O)c(C(C)(C)C)c1 [Bumetrizole]	–	–	183.2 Å²	–

SMILES	collision cross section in nitrogen [2]	collision cross section in nitrogen [3]	collision cross section in nitrogen [4]	other results
Cc1ccc2nc(-c3ccc(N)cc3)sc2c1S(=O)(=O)O [2-(4-Aminophenyl)-6-methylbenzothiazole sulfonic acid]	171.7 Å²	185.9 Å²	174.2 Å²	–
O=C(O[C@@H]1Cc2c(O)cc(O)cc2O[C@@H]1c1cc(O)c(O)c(O)c1)c1cc(O)c(O)c(O)c1 [(-)-Epigallocatechin gallate]	–	212.4 Å²	–	–
CCCCCCCCCCCCCC[N+](C)(C)C [Tetradonium bromide]	–	–	–	collision cross section in nitrogen [5]: 185.1 Å²; collision cross section in nitrogen [6]: 185.7 Å²
CC1(C)[C@@H](O[C@H]2O[C@H](C(=O)O)[C@@H](O)[C@H](O)[C@H]2O[C@@H]2O[C@H](C(=O)O)[C@@H](O)[C@H](O)[C@H]2O)CC[C@]2(C)[C@H]3C(=O)C=C4[C@@H]5C[C@@](C)(C(=O)O)CC[C@]5(C)CC[C@@]4(C)[C@]3(C)CC[C@@H]12 [Ammonium glycyrrhizinate trihydrate]	286.8 Å²	294.4 Å²	282.6 Å²	–
CC(C)(C)OC(=O)c1ccccc1C(=O)O [tert-Butyl hydrogen phthalate]	–	–	151.6 Å²	–
O=C(c1ccc(O)cc1)c1ccc(O)cc1O [2,4,4'-Trihydroxybenzophenone]	–	–	152.8 Å²	–
CCCCCOC(=O)CCCCC [n-Amyl caproate]	–	–	151.6 Å²	–
CC(C)c1ccccc1O [2-Isopropylphenol]	–	–	129.3 Å²	–
Cc1ccc(S(=O)(=O)O)c(C)c1 [Sodium m-xylene-4-sulfonate]	–	–	138.9 Å²	–
CCC(=O)/C=C/C1C(C)=CCCC1(C)C (stereo not given) [Methylionone]	–	–	155.8 Å²	–
CCCCCCCCOC(=O)c1cc(O)c(O)c(O)c1 [Octyl gallate]	–	–	171.5 Å²	–
Cc1cc(O)c2c(c1)C(=O)c1cc(O)cc(O)c1C2=O [Emodin]	–	–	154.6 Å²	–
Cc1ccc(O)cc1C [3,4-Dimethylphenol]	–	–	128.7 Å²	–
CCOC(=O)C(Cl)Cc1cc(-n2nc(C)n(C(F)F)c2=O)c(F)cc1Cl (stereo not given) [Carfentrazone-ethyl]	180.3 Å²	187.9 Å²	–	–
NC(=O)Nc1ccc(Cl)c(Cl)c1 [N-(3,4-Dichlorophenyl)urea]	–	–	135.7 Å²	–
Cc1nnc(-c2ccccc2)c(=O)n1N [Metamitron]	145.2 Å²	–	–	collision cross section in nitrogen [1]: 144.9 Å²
CC(C)N(Cc1ccccc1)C(=O)C(C)(C)C [Butam]	154.5 Å²	163.4 Å²	–	collision cross section in nitrogen [1]: 154.6 Å²
Nc1nc(N)c2nc(CNc3ccc(C(=O)N[C@@H](CCC(=O)O)C(=O)O)cc3)cnc2n1 [Aminopterin]	–	–	199.5 Å²	–
CCOC(=O)c1ccc(O)cc1 [Ethylparaben]	–	–	136.7 Å²	–
C[C@H](CCC(=O)O)[C@H]1CC[C@H]2[C@@H]3CC[C@@H]4C[C@H](O)CC[C@]4(C)[C@H]3CC[C@]12C [Lithocholic acid]	–	–	203 Å²	–
Cc1cc(NC(=O)C(=O)O)cc(C)c1Oc1ccc(O)c2c1CCC2	–	–	199.1 Å²	–
COc1ccc(N)cc1 [p-Anisidinium chloride]	133.2 Å²	–	–	–

SMILES	collision cross section in nitrogen [2]	collision cross section in nitrogen [3]	collision cross section in nitrogen [4]	other results
CCCCCCCCCCCCCC(=O)OCC [Ethyl tetradecanoate]	–	–	169.8 Å²	–
CCCC[n+]1ccccc1 [N-Butylpyridinium chloride]	–	–	–	collision cross section in nitrogen [6]: 127.7 Å²
CCOP(=S)(OCC)SCCS(=O)(=O)CC [Disulfoton sulfone]	–	166 Å²	–	–
CCCCCCCCCCCCN1CCCCCC1=O [Laurocapram]	184.7 Å²	185.4 Å²	–	collision cross section in nitrogen [1]: 185.5 Å²
Cn1c(=O)cc(Oc2ccc(F)cc2F)c2cnc(NCC(C)(C)O)nc21	192.4 Å²	205.6 Å²	193.4 Å²	collision cross section in nitrogen [1]: 192.8 Å²
C=C(C)CS(=O)(=O)O [Sodium 2-methylprop-2-ene-1-sulfonate]	–	–	124.2 Å²	–
CS(=O)(=O)c1cc(C(F)(F)F)ccc1C(=O)c1cnoc1C1CC1 [Isoxaflutole]	–	185.2 Å²	175.5 Å²	–
O=S(=O)(O)C(F)(F)C(F)(F)C(F)(F)C(F)(F)F [Potassium perfluorobutanesulfonate]	–	–	134.2 Å²	–
C=CC(=O)OCC1CC2CC1C1CCC(COC(=O)C=C)C21 (stereo not given) [Tricyclodecanedimethanol diacrylate]	–	176.9 Å²	–	–
CCCCCCCCCCCC(=O)OC [Methyl dodecanoate]	–	–	158.5 Å²	–
COP(=O)(O)OC [Dimethyl phosphate]	–	–	120.6 Å²	–
CC(C)(C)N(NC(=O)c1ccc(Cl)cc1)C(=O)c1ccccc1 [Halofenozide]	–	188.3 Å²	178.2 Å²	–
COc1cc(-c2ccc(N)c(OC)c2)ccc1N [C.I. Disperse Black 6]	170 Å²	–	–	collision cross section in nitrogen [1]: 170.4 Å²; collision cross section in nitrogen (ion type: [M+], ion source: APCI, ion mode: Positive): 156.6 Å²
CCCC(C)c1ccccc1O (stereo not given) [2-(1-Methylbutyl)phenol]	–	–	138.6 Å²	–
C=CC(=O)OCC(COC(=O)C=C)(COC(=O)C=C)COC(=O)C=C [Pentaerythritol tetraacrylate]	172.6 Å²	178.8 Å²	–	–
O=[N+]([O-])c1ccc(C=Cc2ccc([N+](=O)[O-])cc2S(=O)(=O)O)c(S(=O)(=O)O)c1	–	–	182.4 Å²	–
N#Cc1ccccc1N [2-Aminobenzonitrile]	–	–	118 Å²	–
Oc1cccc(-c2ccccc2)c1 [3-Phenylphenol]	–	–	140 Å²	–
CCCCCCCCOS(=O)(=O)O [Sodium octyl sulfate]	–	–	151.3 Å²	–
CC(C)(C#N)c1cc(Cn2cncn2)cc(C(C)(C)C#N)c1 [Anastrozole]	183.5 Å²	188.9 Å²	178.4 Å²	–
